Test results published in patent US12116343B2, “Inhibitors of APOL1 and methods of using same” (Vertex Pharmaceuticals Incorporated, priority 2020, dated 2024).

Molecular target: T1, G1 APOL1 (Homo sapiens, UniProt O14791, I384M/S342G)
T1 construct: expressed in transfected cells
T1 sequence (O14791 28-398 S342G/I384M): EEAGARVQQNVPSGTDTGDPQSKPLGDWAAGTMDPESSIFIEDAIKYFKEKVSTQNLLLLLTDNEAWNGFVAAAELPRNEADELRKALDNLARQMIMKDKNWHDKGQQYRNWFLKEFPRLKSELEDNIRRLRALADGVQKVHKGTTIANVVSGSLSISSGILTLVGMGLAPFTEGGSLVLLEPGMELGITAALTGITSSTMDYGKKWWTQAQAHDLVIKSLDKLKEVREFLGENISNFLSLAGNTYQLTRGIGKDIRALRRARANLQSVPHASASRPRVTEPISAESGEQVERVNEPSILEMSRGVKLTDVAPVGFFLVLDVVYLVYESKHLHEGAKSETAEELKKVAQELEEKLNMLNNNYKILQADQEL
Assay: Acute APOL1 Thallium Assay with inducible stable clones of HEK 293 cells
Format: cell-based
Conditions: HEK 293 T-Rex cells expressing G1 APOL1; read-out: Thallium Assay (IC50)
Method in brief: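 Tetracycline-inducible HEK293 T-Rex clone G1 DC3.25 expressing G1 APOL1, plated at 26000 cells/well in Opti-MEM with tetracycline induction. APOL1 pore activity read on FLIPR as fluorescence increase from Tl+ influx into cells loaded with a Tl+-sensitive AM-ester dye.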

IC50: 250 to 1000 nM
SMILES: O=C(NC1(CCO)CC1)[C@H]1C[C@H](c2c(-c3ccc(F)cc3)[nH]c3c(F)cc(F)cc32)C1 [Compound 59]
